Measured values from patent US20250170121A1, “ISOQUINOLINONE COMPOUND, AND PREPARATION METHOD AND USE THEREFOR” (FUDAN UNIVERSITY, priority 2022, published 2025).

What was measured:
[1] = molecular target: T1, Human FABP4 (Homo sapiens, UniProt P15090); assay: FABP4 inhibition rate, ANS substrate competition (fluorescence) method; type: binding; conditions: compound 25 μM; 10 μM 1,8-ANS, 10 μM FABP4
T1 construct: His tag; made in house; host or cells: E. coli BL21 (DE3)
Excerpt: (§1) Considering that inhibition of FABP3 would cause myocardial function damage and bring potential safety issues, we tested the inhibitory activity of some compounds on FABP3. The activity test is illustrated by the example of the FABP4 activity test system as below.
(§2) Experimental principle and method: Once the free non-covalent fluorescent probe ANS binds to FABP4, the ANS fluorescence intensity will increase and its spectrum will be blue shifted. In this experiment, the inhibitory effect of the compound on FABP4 was evaluated by measuring the change in the ANS fluorescence signal value. For the FABP4 inhibitory activity test, the ANS substrate competition method was used, and we used the method of Kane and Bernlohr (E. Marr, M. Tardie, M. Carty, T. Brown Phillips, I. K. Wang, W. Soeller, X. Qiu, G. Karam, Expression, purification, crystallization and structure of human adipocyte lipid-binding protein (aP2). Acta Crystallogr., Sect. F: Struct. Biol. Cryst. Commun. 62 (2006) 1058-1060.). Human FABP4 with a His tag was expressed in the BL21 (DE3) strain and then purified using a Ni column with a His tag to generate the protein. In the detection system, the concentration of 1,8-ANS substrate was 10 μM, the final concentration of FABP4 was 10 μM, and then the compound prepared by the present invention was added at the required concentration for incubation for 3 minutes, and finally the fluorescence signal was detected at an excitation wavelength (EX) of 370 nm/emission wavelength (EM) of 470 nm. The inhibition rate (%) of the test sample on FABP4 was calculated according to the fluorescence absorption value of the system. The inhibition rate (%) was calculated according to the following equation: […]
(§3) FX represents the fluorescence value (fluorescence, F) of the system measured in the presence of compound x;
(§4) Fbackground represents the fluorescence value of the fluorescent substrate ANS;
(§5) F0% represents the fluorescence value of the system when the inhibition rate is 0%, that is, when no compound was added.

[2] = molecular target: FABP5 (Homo sapiens, UniProt Q01469); assay: FABP5 inhibition rate, ANS substrate competition method (illustrated by the FABP4 system); type: binding; conditions: compound 25 μM
[3] = molecular target: FABP3 (Homo sapiens, UniProt P05413); assay: FABP3 inhibition rate, ANS substrate competition method (illustrated by the FABP4 system); type: binding; conditions: compound 25 μM
Excerpt: as §1, §2, §3, §4, §5

[4] = tested on: MCP-1 secretion in THP-1 cells; assay: MCP-1 secretion in LPS-stimulated THP-1 monocyte-derived macrophages (ELISA); type: cell-based; conditions: 25 μM, 10 μM and 5 μM; 18 h incubation, 100 ng/ml LPS 6 h; FIG. 2
Excerpt: (§6) In FIG. 2A to FIG. 2C, the vertical axis represents the amount (ng) of MCP-1 contained in each mg of cell protein: in FIG. 2D, the vertical axis represents the relative concentration of MCP-1 (ng/mg cellular protein % LPS). Wherein, Control represents blank control treatment, LPS represents lipopolysaccharide treatment, BMS309403 represents inhibitor positive control treatment, RO6806051 (RO) represents lead compound treatment, and Y2, Y3, Y15, Y16 and Y18 represent treatments with compounds Y2, Y3, Y15, Y16 and Y18 prepared in the present invention, respectively.
(§7) Effects of the compounds on monocyte chemoattractant factor-1 (MCP-1) and interleukin-6 (IL-6) in THP-1 monocyte-derived macrophage.
(§8) First, monocytic cell line THP-1 in logarithmic growth phase was plated on a 96-well plate at a cell density of 5*10^5/ml; then 100 nM phorbol myristate ester (PMA) was added to induce the cells for 24 hours to differentiate into macrophages; then the cells were washed once or twice with phosphate buffered saline (PBS), and different concentrations of compounds (5, 10, 25 μM) were added for incubation for 18 hours; finally, after 6 hours of stimulation with 100 ng/ml lipopolysaccharide (LPS), the supernatant was collected and diluted to a certain multiple and the contents of MCP-1 and IL-6 were detected using enzyme-linked immunosorbent assay (ELISA), and cell protein was collected and the protein concentration was measured by BCA method for calibration.

[5] = tested on: IL-6 secretion in THP-1 cells; assay: IL-6 secretion in LPS-stimulated THP-1 monocyte-derived macrophages (ELISA); type: cell-based; conditions: FIG. 3
Excerpt: as §6, with “3,” for “2A to FIG. 2C,”, “protein.” for “protein: in FIG. 2D, the vertical axis represents the relative concentration of MCP-1 (ng/mg cellular protein % LPS).”, “Control (Con)” for “Control”
as §7, §8

FABP5, sequence (Q01469 whole entry): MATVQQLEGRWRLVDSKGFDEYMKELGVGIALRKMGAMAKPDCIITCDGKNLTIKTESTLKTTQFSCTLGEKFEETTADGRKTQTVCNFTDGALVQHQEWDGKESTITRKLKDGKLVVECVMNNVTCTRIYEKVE
T1 sequence (P15090 whole entry): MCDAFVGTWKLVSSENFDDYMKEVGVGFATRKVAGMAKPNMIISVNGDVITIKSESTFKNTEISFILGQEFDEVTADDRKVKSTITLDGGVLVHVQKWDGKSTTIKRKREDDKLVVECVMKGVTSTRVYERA
FABP3, sequence (P05413 whole entry): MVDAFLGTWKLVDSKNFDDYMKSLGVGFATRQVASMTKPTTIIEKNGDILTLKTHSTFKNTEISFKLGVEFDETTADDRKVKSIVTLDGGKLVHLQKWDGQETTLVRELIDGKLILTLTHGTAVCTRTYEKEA

Structure (SMILES)	inhibition at 25 µM [1] [%]	inhibition at 25 µM [2] [%]	inhibition at 25 µM [3] [%]	secretion of inflammatory factor MCP-1 in THP-1 mononuclear macrophages [4]	IL-6 secretion, tendency (no concentration stated) [5]	secretion of inflammatory factor IL-6 in THP-1 mononuclear macrophages ([5]; 25 μM)
O=C(O)c1c(-c2ccccc2)c2cc(Cl)ccc2c(=O)n1C1CCCCC1 [Compound Y1, 6-Chloro-2-cyclohexyl-1-oxo-4-phenyl-1,2-dihydroisoquinoline-3-carboxylic Acid]	70	50	29			
O=C(O)c1c(-c2ccccc2)c2cc(Cl)ccc2c(=O)n1C1CCOCC1 [Compound Y4, 6-Chloro-1-oxo-4-phenyl-2-(tetrahydro-2H-pyran-4-yl)-1,2-dihydroisoquinoline-3-carboxylic Acid]	71	50	14			
O=C(O)c1c(-c2ccccc2)c2cc(Cl)ccc2c(=O)n1C1CC1 [Compound Y5, 6-Chloro-2-cyclopropyl-1-oxo-4-phenyl-1,2-dihydroisoquinoline-3-carboxylic Acid]	88	43	82			
O=C(O)c1c(-c2ccccc2)c2cc(Cl)ccc2c(=O)n1C1CCC1 [Compound Y6, 6-Chloro-2-cyclobutyl-1-oxo-4-phenyl-1,2-dihydroisoquinoline-3-carboxylic Acid]	94	60	81			
O=C(O)c1c(-c2ccccc2)c2cc(Cl)ccc2c(=O)n1C1CCCCCC1 [Compound Y7, 6-Chloro-2-cycloheptyl-1-oxo-4-phenyl-1,2-dihydroisoquinoline-3-carboxylic Acid]	78	57	18			
O=C(O)c1c(-c2ccccc2)c2cc(Cl)ccc2c(=O)n1-c1ccc(Cl)cc1 [Compound Y8, 6-Chloro-2-(4-chlorophenyl)-1-oxo-4-phenyl-1,2-dihydroisoquinoline-3-carboxylic Acid]	35	1				
O=C(O)c1c(-c2ccccc2)c2cc(Cl)ccc2c(=O)n1N1CCCCC1 [Compound Y9, 6-Chloro-1-oxo-4-phenyl-2-(piperidin-1-yl)-1,2-dihydroisoquinoline-3-carboxylic Acid]	95	72	59			
O=C(O)c1c(-c2ccccc2)c2cc(Br)ccc2c(=O)n1C1CCCC1 [Compound Y10, 6-Bromo-2-cyclopentyl-1-oxo-4-phenyl-1,2-dihydroisoquinoline-3-carboxylic Acid]	95	58	57			
O=C(O)c1c(-c2ccccc2)c2cc(Cl)c(Cl)cc2c(=O)n1C1CCCC1 [Compound Y11, 6,7-Dichloro-2-cyclopentyl-1-oxo-4-phenyl-1,2-dihydroisoquinoline-3-carboxylic Acid]	77	41	48			
O=C(O)c1c(-c2ccccc2)c2ccccc2c(=O)n1C1CCCC1 [Compound Y12, 2-Cyclopentyl-1-oxo-4-phenyl-1,2-dihydroisoquinoline-3-carboxylic Acid]	58	25				

Now from value to molecule, other results behind:

inhibition at 25 µM [1] [%]	inhibition at 25 µM [2] [%]	inhibition at 25 µM [3] [%]	Structure (SMILES)	secretion of inflammatory factor MCP-1 in THP-1 mononuclear macrophages [4]	IL-6 secretion, tendency (no concentration stated) [5]	secretion of inflammatory factor IL-6 in THP-1 mononuclear macrophages ([5]; 25 μM)
89	43	11	O=C(O)c1c(-c2ccccc2)c2cc(F)ccc2c(=O)n1C1CCCC1 [Compound Y13, 2-Cyclopentyl-6-fluoro-1-oxo-4-phenyl-1,2-dihydroisoquinoline-3-carboxylic Acid]			
90	55	26	Cc1ccc2c(=O)n(C3CCCC3)c(C(=O)O)c(-c3ccccc3)c2c1 [Compound Y14, 2-Cyclopentyl-6-methyl-1-oxo-4-phenyl-1,2-dihydroisoquinoline-3-carboxylic Acid]			
91	52	27	O=C(O)c1c(-c2ccc(F)cc2)c2cc(Cl)ccc2c(=O)n1C1CCCC1 [Compound Y15, 6-Chloro-2-cyclopentyl-4-(4-fluorophenyl)-1-oxo-1,2-dihydroisoquinoline-3-carboxylic Acid]	could reduce the secretion of inflammatory factor MCP-1	tendency to reduce IL-6 secretion but with no statistical difference	
92	52	28	O=C(O)c1c(-c2ccc(O)cc2)c2cc(Cl)ccc2c(=O)n1C1CCCC1 [Compound Y16, 6-Chloro-2-cyclopentyl-4-(4-hydroxyphenyl)-1-oxo-1,2-dihydroisoquinoline-3-carboxylic Acid]	could reduce the secretion of inflammatory factor MCP-1		
1	14		O=C(O)c1c(-c2ccc(CO)cc2)c2cc(Cl)ccc2c(=O)n1C1CCCC1 [Compound Y17, 6-Chloro-2-cyclopentyl-4-(4-(hydroxymethyl)phenyl)-1-oxo-1,2-dihydroisoquinoline-3-carboxylic Acid]			
91	46	16	O=C(O)c1c(-c2ccc(F)c(Cl)c2)c2cc(Cl)ccc2c(=O)n1C1CCCC1 [Compound Y18, 6-Chloro-4-(3-chloro-4-fluorophenyl)-2-cyclopentyl-1-oxo-1,2-dihydroisoquinoline-3-carboxylic Acid]	could reduce the secretion of inflammatory factor MCP-1	tendency to reduce IL-6 secretion but with no statistical difference	could reduce the secretion of inflammatory factor IL-6
14	22	3	O=C(O)c1c(-c2ccc(C(F)(F)F)cc2)c2cc(Cl)ccc2c(=O)n1C1CCCC1 [Compound Y19, 6-Chloro-2-cyclopentyl-1-oxo-4-(4-(trifluoromethyl)phenyl)-1,2-dihydroisoquinoline-3-carboxylic Acid]			
32	25		O=C(O)c1c(-c2ccc3c(c2)CCO3)c2cc(Cl)ccc2c(=O)n1C1CCCC1 [Compound Y20, 6-Chloro-2-cyclopentyl-4-(2,3-dihydrobenzofuran-5-yl)-1-oxo-1,2-dihydroisoquinoline-3-carboxylic Acid]			
76	31	9	O=C(O)c1c(-c2cccnc2)c2cc(Cl)ccc2c(=O)n1C1CCCC1 [Compound Y21, 6-Chloro-2-cyclopentyl-1-oxo-4-(pyridin-3-yl)-1,2-dihydroisoquinoline-3-carboxylic Acid]			
36	36	1	Cc1nn(C)cc1-c1c(C(=O)O)n(C2CCCC2)c(=O)c2ccc(Cl)cc12 [Compound Y22, 6-Chloro-2-cyclopentyl-4-(1,3-dimethyl-1H-pyrazol-4-yl)-1-oxo-1,2-dihydroisoquinoline-3-carboxylic Acid]			
